Measurements as given in PMC6008492, “Structure activity relationship studies on rhodanines and derived enethiol inhibitors of metallo-β-lactamases” (Bioorganic & Medicinal Chemistry, 2018).
Read-outs that look alike come from different tables or passages of the source.

How the values were obtained:
VIM-2 = molecular target: T1, VIM-2 (Escherichia coli, UniProt Q5U7L7); test: biochemical
T1 construct: made in house
Description: (§1) Inhibition analyses against bacterial MBLs and SBLs were performed as described previously.[22], [24], [26] Residual enzyme activities were determined for a range of inhibitor concentrations. Non-linear regression fitting of IC50 curves was carried out using a three-parameter dose–response curve in GraphPad Prism. Errors in IC50 values are expressed as: σ(logIC50)/logIC50×IC50
(§2) We first screened the inhibitors against a representative set of presently clinically important and other MBLs[22], comprising both Class B1 enzymes (NDM-1, New Delhi MBL-1; VIM-2, Verona integron–encoded MBL-2; BcII, Bacillus cereus II MBL; SPM-1, São Paulo MBL-1; IMP-1, imipenemase MBL-1) and the Class B2 MBL CphA (carbapenem hydrolysing MBL from Aeromonas hydrophila).[22] The latter MBL (CphA) only utilises one active site Zn(II) ion in catalysis, whilst the others normally use two Zn(II) ions. We also screened the inhibitors against a representative panel of SBLs from different classes (TEM-1, Temoneira β-lactamase-1, class A; CTX-M-15, cefotaxime hydrolysing β-lactamase from Munich 15, class A, extended spectrum β-lactamase (ESBL); AmpC E. coli, class C, and OXA-10, oxacillinase-10, class D).
Figure S6: IC50 curves for VIM-2 inhibition time courses. Residual activities were calculated from the
(§3) initial rate of FC5 hydrolysis after incubation of the enzyme with the inhibitor for 10 minutes. […]

BcII = molecular target: T2, BcII (Bacillus cereus, UniProt P04190); test: biochemical
T2 construct: made in house
Description: as §1
(§4) We first screened the inhibitors against a representative set of presently clinically important and other MBLs[22], comprising both Class B1 enzymes (NDM-1, New Delhi MBL-1; VIM-2, Verona integron–encoded MBL-2; BcII, Bacillus cereus II MBL; SPM-1, São Paulo MBL-1; IMP-1, imipenemase MBL-1) and the Class B2 MBL CphA (carbapenem hydrolysing MBL from Aeromonas hydrophila).[22] The latter MBL (CphA) only utilises one active site Zn(II) ion in catalysis, whilst the others normally use two Zn(II) ions.
Figure S2: IC50 curves for BcII inhibition time courses. Residual activities were calculated from the initial
rate of FC5 hydrolysis after incubation of the enzyme with the inhibitor for 10 minutes. […]

CphA = molecular target: T3, CphA (Aeromonas hydrophila, UniProt P26918); test: CphA (subclass B2 MBL) inhibition; type: biochemical
T3 construct: made in house
Description: as §1, §2

IMP-1 = molecular target: T4, IMP-1 (Serratia marcescens, UniProt P52699); test: IMP-1 inhibition, fluorogenic cephalosporin (FC5) hydrolysis; type: biochemical
T4 construct: made in house
Description: as §1, §4
Figure S3: IC50 curves for IMP-1 inhibition time courses. Residual activities were calculated from the
initial rate of FC5 hydrolysis after incubation of the enzyme with the inhibitor for 10 minutes.

NDM-1 = molecular target: T5, NDM-1 (Klebsiella pneumoniae, UniProt C7C422); test: NDM-1 inhibition, fluorogenic cephalosporin (FC5) hydrolysis; type: biochemical
T5 construct: made in house
Description: as §1, §4
Figure S4: IC50 curves for NDM-1 inhibition time courses. Residual activities were calculated from the
as §3

SPM-1 = SPM-1 (Pseudomonas aeruginosa, UniProt Q8G9Q0); test: SPM-1 inhibition, fluorogenic cephalosporin (FC5) hydrolysis; type: biochemical
Description: as §1, §4
Figure S5: IC50 curves for SPM-1 inhibition time courses. Residual activities were calculated from the
as §3

CTX-M-15 = molecular target: T6, CTX-M-15 (Escherichia coli, UniProt Q9EXV5); test: SBL inhibition, CTX-M-15; type: biochemical; conditions: read-out: residual activity CTX-M-15
T6 construct: made in house
Description: as §1, §2
(§5) Figure S1. Residual activities of serine-β-lactamases (SBLs) upon inhibition by rhodanines and enethiols at
(§6) Inhibition of intact rhodanine on a panel of SBLs
(§7) Inhibition of intact rhodanine amide on a panel […]

AmpC = molecular target: T7, AmpC (Escherichia coli, UniProt P00811); test: SBL inhibition, AmpC; type: biochemical, E. coli; conditions: read-out: residual activity AmpC
T7 construct: made in house
Description: as §1, §2, §5, §6, §7

TEM-1 = molecular target: T8, TEM-1 (Escherichia coli, UniProt P62593); test: SBL inhibition, TEM-1; type: biochemical; conditions: read-out: residual activity TEM-1
T8 construct: made in house
Description: as §1, §2, §5, §6, §7

OXA-10 = molecular target: T9, OXA-10 (Pseudomonas aeruginosa, UniProt P14489); test: SBL inhibition, OXA-10; type: biochemical; conditions: read-out: residual activity OXA-10
T9 construct: made in house
Description: as §1, §2, §5, §6, §7

[1] = test system: MBLs (SPM-1, IMP-1, BcII, VIM-2, NDM-1); type: biochemical; conditions: for MBL inhibition, result in words: at 100 µM
Description: as §1, §2

[2] = enethiols 6 assayed as sodium salts, 10 min incubation, read-out: IC50 VIM-2 (converted)
[3] = enethiols 6 assayed as sodium salts, 10 min incubation, read-out: IC50 BcII (converted)
[4] = enethiols 6 assayed as sodium salts, 10 min incubation, read-out: IC50 IMP-1 (converted)
[5] = enethiols 6 assayed as sodium salts, 10 min incubation, read-out: IC50 NDM-1
[6] = enethiols 6 assayed as sodium salts, 10 min incubation, read-out: IC50 SPM-1 (converted)
[7] = lower end of the range, read-out: IC50 values from (lowest across the MBL panel)
[8] = Table 2, read-out: IC50 versus BcII
[9] = Table 2, read-out: IC50 versus SPM-1
[10] = Table 2, read-out: IC50 versus CphA

T3 sequence (P26918 28-254): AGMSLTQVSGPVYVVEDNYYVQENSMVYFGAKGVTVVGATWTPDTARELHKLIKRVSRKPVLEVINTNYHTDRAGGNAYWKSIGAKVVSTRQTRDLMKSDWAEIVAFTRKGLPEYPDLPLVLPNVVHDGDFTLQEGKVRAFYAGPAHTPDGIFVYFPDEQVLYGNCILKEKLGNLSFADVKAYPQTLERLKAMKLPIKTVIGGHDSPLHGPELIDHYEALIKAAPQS
T4 sequence (P52699 19-246, looked up, species assumed): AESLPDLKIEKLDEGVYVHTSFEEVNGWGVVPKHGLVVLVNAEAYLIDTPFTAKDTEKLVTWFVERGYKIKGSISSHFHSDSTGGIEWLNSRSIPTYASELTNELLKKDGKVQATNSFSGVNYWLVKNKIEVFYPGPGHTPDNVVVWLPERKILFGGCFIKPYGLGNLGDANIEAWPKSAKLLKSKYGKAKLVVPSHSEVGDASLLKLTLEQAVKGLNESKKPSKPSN
T2 sequence (P04190 31-257): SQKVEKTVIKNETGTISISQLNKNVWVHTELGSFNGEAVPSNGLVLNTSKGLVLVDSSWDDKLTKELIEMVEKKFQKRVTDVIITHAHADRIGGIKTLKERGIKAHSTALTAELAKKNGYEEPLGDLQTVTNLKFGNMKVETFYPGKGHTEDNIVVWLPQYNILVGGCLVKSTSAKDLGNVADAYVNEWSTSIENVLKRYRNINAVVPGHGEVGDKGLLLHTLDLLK
T5 sequence (C7C422 29-270, looked up, species assumed): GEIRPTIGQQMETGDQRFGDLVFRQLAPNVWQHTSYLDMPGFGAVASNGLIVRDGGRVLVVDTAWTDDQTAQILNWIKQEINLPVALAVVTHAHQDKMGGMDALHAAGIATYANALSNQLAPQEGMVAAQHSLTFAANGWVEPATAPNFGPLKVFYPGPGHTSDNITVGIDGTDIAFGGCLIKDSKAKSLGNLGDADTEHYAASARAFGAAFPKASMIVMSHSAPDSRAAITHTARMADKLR
Sequence of SPM-1 (Q8G9Q0 entry or part of it): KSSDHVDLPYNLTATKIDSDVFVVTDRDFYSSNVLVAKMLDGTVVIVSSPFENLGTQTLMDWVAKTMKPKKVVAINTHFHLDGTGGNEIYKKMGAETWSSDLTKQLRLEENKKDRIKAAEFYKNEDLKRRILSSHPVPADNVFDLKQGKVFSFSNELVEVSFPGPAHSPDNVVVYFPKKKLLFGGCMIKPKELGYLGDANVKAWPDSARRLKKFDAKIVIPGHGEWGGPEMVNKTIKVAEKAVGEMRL
T9 sequence (P14489 20-266, species assumed): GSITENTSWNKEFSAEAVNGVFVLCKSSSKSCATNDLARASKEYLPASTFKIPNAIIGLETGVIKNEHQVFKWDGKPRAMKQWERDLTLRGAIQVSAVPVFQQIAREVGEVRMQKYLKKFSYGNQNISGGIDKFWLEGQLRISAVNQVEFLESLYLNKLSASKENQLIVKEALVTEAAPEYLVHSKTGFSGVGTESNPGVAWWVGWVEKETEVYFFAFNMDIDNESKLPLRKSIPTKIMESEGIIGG
T6 sequence (Q9EXV5 29-291, species assumed): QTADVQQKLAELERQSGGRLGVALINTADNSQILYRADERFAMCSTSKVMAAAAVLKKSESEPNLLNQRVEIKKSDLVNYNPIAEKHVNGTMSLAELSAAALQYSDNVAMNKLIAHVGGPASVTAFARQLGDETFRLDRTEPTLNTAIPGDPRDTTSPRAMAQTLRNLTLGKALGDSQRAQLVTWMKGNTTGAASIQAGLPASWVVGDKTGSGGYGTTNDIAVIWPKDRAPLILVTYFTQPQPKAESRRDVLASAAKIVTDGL
T7 sequence (P00811 20-377): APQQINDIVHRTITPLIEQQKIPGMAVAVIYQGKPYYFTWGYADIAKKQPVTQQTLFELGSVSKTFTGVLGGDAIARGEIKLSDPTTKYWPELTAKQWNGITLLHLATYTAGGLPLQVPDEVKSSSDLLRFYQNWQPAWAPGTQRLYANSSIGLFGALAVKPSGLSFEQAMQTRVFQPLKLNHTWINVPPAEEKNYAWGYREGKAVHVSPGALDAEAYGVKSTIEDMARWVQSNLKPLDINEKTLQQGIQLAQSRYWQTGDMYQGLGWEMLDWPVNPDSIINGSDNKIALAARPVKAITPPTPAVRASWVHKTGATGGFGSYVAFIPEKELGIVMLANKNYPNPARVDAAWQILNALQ
T8 sequence (P62593 24-286 limits assumed): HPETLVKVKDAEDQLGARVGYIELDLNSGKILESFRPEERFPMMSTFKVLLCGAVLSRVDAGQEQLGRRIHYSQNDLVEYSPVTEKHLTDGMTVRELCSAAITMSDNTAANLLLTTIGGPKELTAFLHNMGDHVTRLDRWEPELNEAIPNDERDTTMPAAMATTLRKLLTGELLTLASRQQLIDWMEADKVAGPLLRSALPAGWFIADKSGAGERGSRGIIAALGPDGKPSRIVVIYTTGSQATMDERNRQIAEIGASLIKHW

SMILES	IC50 (VIM-2; [2])	IC50 (BcII; [3])	IC50 (IMP-1; [4])	IC50 (NDM-1; [5])	IC50 (SPM-1; [6])	IC50 (CphA)	IC50 (SPM-1; [9])	also measured
O=C(O)/C(S)=C/c1c(Cl)ccc(Cl)c1Cl [ML302F, reference compound]	0.04 µM	0.08 µM	0.02 µM	2.4 µM	0.02 µM			IC50 (CphA; read-out: IC50 CphA): 0.2 ± 0.004 µM
CN1CCN(NC(=O)CN2C(=O)/C(=C/c3c4ccccc4cc4ccccc34)SC2=S)CC1 [Compound 5r]								remaining activity at 200 µM (CTX-M-15): ~40%; remaining activity at 200 µM (AmpC): ~18%; remaining activity at 200 µM (TEM-1): ~6%; remaining activity at 200 µM (OXA-10): ~47%
O=P(O)(O)C(S)c1ccc(Br)cc1F (stereo not drawn) [Compound 26]								remaining activity at 100 µM (VIM-2; read-out: % Residual activity versus VIM-2): 100%; remaining activity at 100 µM (BcII; read-out: % Residual activity versus BcII): 100%; remaining activity at 100 µM (IMP-1; read-out: % Residual activity versus IMP-1): 100%; remaining activity at 100 µM (NDM-1; read-out: % Residual activity versus NDM-1): 96 ± 3%; remaining activity at 100 µM (SPM-1; read-out: % Residual activity versus SPM-1): 95 ± 6%; MBL inhibition, result in words [1]: inactive
CN1CCN(NC(=O)CN2C(=O)/C(=C/c3ccccc3)SC2=S)CC1 [Compound 5a]	16.4 µM	> 50 µM	22.7 µM	26.7 µM	> 50 µM	> 50 µM		
O=C(O)/C(S)=C/c1cc(Cl)ccc1Cl [Compound 6o]	1.5 µM	1.6 µM	4.7 µM	45.3 µM	0.8 µM			IC50 [1, 7]: 0.8 µM
O=C(O)C(O)c1ccccc1 (stereo not drawn) [Mandelic acid, reference compound]						> 100 µM	> 100 µM	IC50 (VIM-2): > 100 µM; IC50 (BcII; [8]): > 100 µM; IC50 (IMP-1): > 100 µM; IC50 (NDM-1): > 100 µM; MBL inhibition, result in words [1]: inactive
O=C(O)/C(S)=C/c1c2ccccc2cc2ccccc12 [Compound 6r]	0.05 ± 0.001 µM	> 50 µM		1.7 ± 0.6 µM				remaining activity at 200 µM (CTX-M-15): ~65%; remaining activity at 200 µM (AmpC): ~41%; remaining activity at 200 µM (TEM-1): ~1%; remaining activity at 200 µM (OXA-10): ~47%
Cc1cccc(C)c1/C=C(\S)C(=O)O [Compound 6q]	0.07 µM	0.2 µM	0.02 µM	4.9 µM	0.02 µM			IC50 [1, 7]: 0.02 µM; IC50 ([1]; upper end of the range, read-out: IC50 values to (highest across the MBL panel)): 4.9 µM
O=C(O)C(S)c1ccccc1 (stereo not drawn) [Compound 13a]							0.05 ± 0.001 µM	IC50 (VIM-2): 0.04 ± 0.001 µM; IC50 (BcII; read-out: IC50 versus BcII): 0.1 µM; IC50 (CphA; [10]): 71 ± 1 µM; IC50 (IMP-1): 0.07 ± 0.003 µM; IC50 (NDM-1): 12.9 ± 1 µM
O=C(O)C(O)Cc1ccccc1 (stereo not drawn) [3-Phenyllactic acid, reference compound]						> 100 µM	> 100 µM	IC50 (VIM-2): > 100 µM; IC50 (BcII; [8]): > 100 µM; IC50 (IMP-1): > 100 µM; IC50 (NDM-1): > 100 µM; MBL inhibition, result in words [1]: inactive
O=C(O)C(S)Cc1ccccc1 (stereo not drawn) [Compound 13b]							0.07 ± 0.001 µM	IC50 (VIM-2; Table 2, read-out: IC50 versus VIM-2): 0.07 ± 0.002 µM; IC50 (BcII; [8]): 1.4 ± 0.3 µM; IC50 (CphA; [10]): 130 ± 10 µM; IC50 (IMP-1; Table 2, read-out: IC50 versus IMP-1): 0.05 ± 0.002 µM; IC50 (NDM-1; Table 2, read-out: IC50 versus NDM-1): 38.7 ± 4.7 µM
O=C(O)/C(S)=C/c1c(Cl)cccc1Cl [Compound 6m]	0.03 µM	0.07 µM	0.01 µM	0.6 µM	0.01 µM	0.8 ± 0.02 µM		IC50 [1, 7]: 0.01 µM
CN1CCN(NC(=O)CN2C(=O)/C(=C/c3c(F)ccc(F)c3F)SC2=S)CC1 [Compound 5k]	2.6 µM	3.5 µM	1.6 µM	40.1 µM	1.5 µM			IC50 ([1]; SPM-1, IMP-1, BcII, VIM-2, read-out: IC50 values for all the tested B1 subclass MBLs, with the exception of NDM-1): < 3.5 µM
